The target of one assay is Cytochrome P450 2D6 (Homo sapiens, UniProt P10635).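 Note: CYP2D6 member of a cytochrome P450 panel assay.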
The target in assay [1] is T1, Heat shock factor protein 1 (Mus musculus, UniProt P38532).
T1 sequence (P38532 whole entry): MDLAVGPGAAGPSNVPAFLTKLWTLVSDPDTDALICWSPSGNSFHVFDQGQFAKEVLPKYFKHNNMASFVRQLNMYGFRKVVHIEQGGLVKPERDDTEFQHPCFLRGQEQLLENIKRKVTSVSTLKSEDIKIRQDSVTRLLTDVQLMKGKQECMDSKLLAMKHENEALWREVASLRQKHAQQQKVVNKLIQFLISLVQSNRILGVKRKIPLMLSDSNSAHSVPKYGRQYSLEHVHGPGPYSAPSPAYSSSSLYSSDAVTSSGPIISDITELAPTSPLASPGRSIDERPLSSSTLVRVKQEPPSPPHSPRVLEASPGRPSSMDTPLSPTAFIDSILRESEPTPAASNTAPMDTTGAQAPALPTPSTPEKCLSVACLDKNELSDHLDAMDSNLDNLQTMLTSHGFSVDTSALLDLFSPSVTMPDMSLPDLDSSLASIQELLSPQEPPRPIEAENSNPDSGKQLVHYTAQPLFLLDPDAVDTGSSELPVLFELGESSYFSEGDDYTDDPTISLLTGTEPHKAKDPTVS
Description: enhancement of HSF1-driven luciferase signal – cell-based, NIH3T3, luminescence, dose retest, confirmation (AID 435004).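 Note: stress induced by proteasome inhibitor MG132 added 30 min after compound; luciferase reporter driven by HSF1 response element in NIH3T3 cells; actives raise luminescence as potentiators of the MG132 stress response.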 The class given is functional.

The target in assay [2] is T2, Corticotropin-releasing factor receptor 2/Corticotropin-releasing factor-binding protein (Homo sapiens, UniProt P24387+Q13324).
T2 sequence (Q13324 whole entry): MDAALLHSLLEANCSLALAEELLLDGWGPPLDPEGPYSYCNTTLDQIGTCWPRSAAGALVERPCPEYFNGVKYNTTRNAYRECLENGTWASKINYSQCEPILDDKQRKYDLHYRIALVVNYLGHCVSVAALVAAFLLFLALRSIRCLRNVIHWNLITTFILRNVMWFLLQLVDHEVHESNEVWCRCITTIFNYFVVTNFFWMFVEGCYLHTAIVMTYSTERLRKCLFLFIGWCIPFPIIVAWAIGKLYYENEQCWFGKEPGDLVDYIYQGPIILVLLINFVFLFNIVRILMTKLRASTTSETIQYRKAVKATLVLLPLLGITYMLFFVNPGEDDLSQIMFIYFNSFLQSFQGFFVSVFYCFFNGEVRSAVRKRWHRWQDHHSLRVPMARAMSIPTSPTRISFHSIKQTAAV
T2 sequence (P24387 whole entry): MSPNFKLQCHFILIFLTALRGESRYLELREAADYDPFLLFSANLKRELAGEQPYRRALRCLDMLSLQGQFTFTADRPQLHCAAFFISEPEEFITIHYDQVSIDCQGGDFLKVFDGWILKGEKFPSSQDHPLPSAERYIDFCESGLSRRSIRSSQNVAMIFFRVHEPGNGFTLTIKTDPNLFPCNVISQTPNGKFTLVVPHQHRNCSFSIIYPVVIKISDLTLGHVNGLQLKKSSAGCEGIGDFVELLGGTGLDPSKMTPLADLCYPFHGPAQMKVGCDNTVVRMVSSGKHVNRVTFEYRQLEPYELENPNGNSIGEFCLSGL
Briefly: activators of CRF receptor 2 with binding protein – uHTS hits, confirmation (AID 602473). The class given is functional. The settings on record: read-out: EC50_Mean.

The target in assay [3] is T3, Replicative DNA helicase DnaB (Mycobacterium tuberculosis, UniProt P9WMR3).
T3 sequence (P9WMR3 whole entry): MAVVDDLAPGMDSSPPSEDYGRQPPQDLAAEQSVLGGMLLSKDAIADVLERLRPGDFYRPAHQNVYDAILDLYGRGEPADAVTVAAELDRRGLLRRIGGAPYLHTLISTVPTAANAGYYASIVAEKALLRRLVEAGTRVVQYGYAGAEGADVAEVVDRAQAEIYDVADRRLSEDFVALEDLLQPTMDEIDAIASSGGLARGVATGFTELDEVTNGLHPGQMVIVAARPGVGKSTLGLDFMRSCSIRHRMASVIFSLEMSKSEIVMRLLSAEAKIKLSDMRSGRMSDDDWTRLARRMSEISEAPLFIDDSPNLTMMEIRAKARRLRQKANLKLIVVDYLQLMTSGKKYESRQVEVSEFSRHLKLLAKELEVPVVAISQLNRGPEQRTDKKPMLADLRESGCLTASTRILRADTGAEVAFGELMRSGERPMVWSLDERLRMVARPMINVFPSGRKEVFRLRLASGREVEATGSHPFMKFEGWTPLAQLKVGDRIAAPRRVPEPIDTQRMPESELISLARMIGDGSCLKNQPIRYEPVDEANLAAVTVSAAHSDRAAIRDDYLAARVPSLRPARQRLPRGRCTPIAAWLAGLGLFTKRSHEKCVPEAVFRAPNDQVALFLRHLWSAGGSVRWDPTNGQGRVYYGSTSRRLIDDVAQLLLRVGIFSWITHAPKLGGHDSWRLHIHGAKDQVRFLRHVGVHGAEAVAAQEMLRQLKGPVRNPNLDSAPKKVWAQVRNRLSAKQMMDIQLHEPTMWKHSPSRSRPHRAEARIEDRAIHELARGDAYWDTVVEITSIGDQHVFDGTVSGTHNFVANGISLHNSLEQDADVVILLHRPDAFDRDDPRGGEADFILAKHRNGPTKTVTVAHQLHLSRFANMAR
Briefly: DnaB intein splicing inhibitors, dose response, biochemical, cell-free fluorescence (AID 449749). In kind it is functional.

A further assay deals with T4, Protein RecA (Mycobacterium tuberculosis, UniProt P9WHJ3).
T4 sequence (P9WHJ3 whole entry): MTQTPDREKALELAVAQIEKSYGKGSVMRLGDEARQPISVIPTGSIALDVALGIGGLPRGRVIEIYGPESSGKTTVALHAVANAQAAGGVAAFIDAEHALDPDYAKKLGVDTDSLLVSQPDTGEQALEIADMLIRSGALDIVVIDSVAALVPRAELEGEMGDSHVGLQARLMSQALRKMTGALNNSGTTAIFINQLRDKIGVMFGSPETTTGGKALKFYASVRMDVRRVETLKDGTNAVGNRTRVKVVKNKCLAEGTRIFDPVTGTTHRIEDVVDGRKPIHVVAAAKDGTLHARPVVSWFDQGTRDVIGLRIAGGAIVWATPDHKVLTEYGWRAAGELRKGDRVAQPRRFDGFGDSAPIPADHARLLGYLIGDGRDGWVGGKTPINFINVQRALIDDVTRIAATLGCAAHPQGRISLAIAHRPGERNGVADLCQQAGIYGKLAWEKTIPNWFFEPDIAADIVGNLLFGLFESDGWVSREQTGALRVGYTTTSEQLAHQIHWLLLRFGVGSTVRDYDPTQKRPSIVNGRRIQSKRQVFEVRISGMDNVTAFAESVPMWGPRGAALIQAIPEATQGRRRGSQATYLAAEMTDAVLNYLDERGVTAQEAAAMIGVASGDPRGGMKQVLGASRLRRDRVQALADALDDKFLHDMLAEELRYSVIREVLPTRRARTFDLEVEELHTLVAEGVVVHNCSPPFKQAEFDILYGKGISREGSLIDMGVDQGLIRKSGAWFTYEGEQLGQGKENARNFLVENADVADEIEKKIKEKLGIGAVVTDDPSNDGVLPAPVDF
Description: Fluorescence Cell-Free Homogeneous Dose Retest to Identify Inhibitors of RecA-Intein Splicing Activity. [Related pubchem assays (depositor defined):AID2097, AID2223, AID489010, AID492950]. The class given is functional.

Assay [4] has as its target T1, Heat shock factor protein 1. Briefly: decrease of HSF1-responsive luciferase luminescence – cell-based, NIH3T3, dose retest, confirmation (AID 2382).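 Note: NIH3T3 fibroblasts with HSF1-driven luciferase reporter stressed by proteasome inhibitor MG132; luminescence from HSF1-driven luciferase expression after 8 hours of MG132 stress.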 The class given is functional.

Active and inactive are the calls of the source. Cut-off read from the data, not from the text of the source, for most assays here: actives have a measured EC50 and inactives only a lower limit.

The AC50 is the concentration at which the activity in the assay is half-maximal.

Chain of Cytochrome P450 2D6 (P10635 whole entry): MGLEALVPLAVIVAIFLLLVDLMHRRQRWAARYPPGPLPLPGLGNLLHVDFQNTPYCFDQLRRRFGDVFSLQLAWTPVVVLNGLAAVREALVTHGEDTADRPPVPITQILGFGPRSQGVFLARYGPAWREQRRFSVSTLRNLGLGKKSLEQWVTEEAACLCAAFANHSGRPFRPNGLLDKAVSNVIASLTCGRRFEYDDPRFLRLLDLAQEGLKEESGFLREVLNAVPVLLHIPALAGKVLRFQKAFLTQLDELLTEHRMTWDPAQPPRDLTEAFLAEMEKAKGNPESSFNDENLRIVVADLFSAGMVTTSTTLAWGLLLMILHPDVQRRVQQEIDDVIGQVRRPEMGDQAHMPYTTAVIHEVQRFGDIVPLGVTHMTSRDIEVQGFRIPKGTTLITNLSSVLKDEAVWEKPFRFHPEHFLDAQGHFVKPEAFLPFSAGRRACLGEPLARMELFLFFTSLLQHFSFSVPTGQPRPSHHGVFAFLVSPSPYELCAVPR

Regarding `CCCC(=O)NCCc1c2n(c3ccc(OC)cc13)Cc1ccccc1-2`, the AC50 at Cytochrome P450 2D6 was 39.8 µM (inconclusive).

For `Cc1ccnc(NC(=O)c2cc3cc(F)ccc3s2)c1`, the EC50 in assay [1] was > 260 µM (inactive).

Turning to `CCOc1ccc(NS(=O)(=O)c2ccc(C(=O)NCC(c3ccco3)N3CCCC3)cc2)cc1` (stereo not drawn), the EC50 in assay [2] was 6.17 µM (active).

With `CCOC(=O)N1CCN(c2nc(-c3ccco3)cc(C(F)(F)F)n2)CC1`, the AC50 on Cytochrome P450 2D6 was 14.1 µM (inconclusive).

For `Cc1ccc(C(=O)Cn2nnc(-c3ccccc3-n3cnnn3)n2)cc1`, the EC50 in assay [1] is > 260 µM (inactive).

As for `c1cn(-c2ncnc3ccc(-c4ccoc4)cc23)cn1`, at Cytochrome P450 2D6, the half-maximal activity concentration (AC50) was 39.8 µM (inconclusive).

For `CC(=O)Oc1ccc(N(C(C)=O)S(=O)(=O)c2ccc3ccccc3c2)cc1Br`, in assay [3], the AC50 is 9.4 µM (active). Further, at Protein RecA, the EC50 was 17.3 µM (active).

Take `COc1ccc(-c2[nH]nc3c2C(c2ccoc2)C(C#N)=C(N)O3)cc1` (stereo not drawn): the AC50 in assay [3] is 1.39 µM (active). Besides, the EC50 at Protein RecA is 0.548 µM (active).

As to `O=C(NCCc1nc2ccccc2[nH]1)/C(=C/c1ccc(F)cc1)NC(=O)c1ccco1`, the EC50 in assay [1] was > 260 µM (inactive).

With `O=C(COC(=O)COc1cccc(Br)c1)Nc1c(Cl)cccc1Cl`, the EC50 in assay [1] was > 260 µM (inactive).

In the case of `Cc1ccc(C(NC(=O)/C=C\c2ccc3c(c2)OCO3)C(=O)Nc2ccc3c(c2)OCO3)cc1` (stereo not drawn), in assay [1], the EC50 was > 260 µM (inactive).

For `CCCc1n[nH]c2c1C(c1ccsc1)C(C#N)=C(N)O2` (stereo not drawn), the AC50 in assay [3] was 16.5 µM (active). The EC50 at Protein RecA was 2.28 µM (active).

Turning to `Cc1ccc(-n2nc3c(=O)n(CCCC(=O)N4CCC(C(N)=O)CC4)nc(C)c3c2C)cc1`, the EC50 in assay [4] was > 195 µM (not active).

In the case of `COc1ccc(/C=C(\C#N)C(=O)Nc2cccc(C)n2)cc1`, in assay [1], the EC50 was 165 µM (active).

In the case of `Cc1ccc(NC(=O)c2sc3ncnc(N4CCN(c5ccccn5)CC4)c3c2C)c(C)c1`, the AC50 in assay [3] was 15.7 µM (active). Besides, the EC50 at Protein RecA is > 380 µM (inactive).

For the molecule `COCc1cc(CN2CCN(CCc3ccccc3)C(CCO)C2)ccc1OC` (stereo not drawn), in assay [1], the EC50 was > 260 µM (inactive).

For the molecule `O=C1CC(c2ccc(Cl)cc2)n2nc(NS(=O)(=O)c3ccc(F)cc3)nc2N1` (stereo not drawn), the EC50 in assay [1] was > 260 µM (inactive).

Turning to `CCN(CC)c1ccc(/C=C2/C(=O)N(c3ccc([N+](=O)[O-])cc3)N=C2N2CCOCC2)cc1`, in assay [1], the EC50 was > 260 µM (inactive).

As to `CCn1c2ccccc2c2cc(NS(=O)(=O)c3ccccc3C)ccc21`, the AC50 at Cytochrome P450 2D6 was 8.91 µM (inconclusive).

`COc1ccc(OC)c(Nc2nc3ccc(C)cc3n3cnnc23)c1`: in assay [1], the EC50 was > 260 µM (inactive).

`CCN=C(S)NNC(=O)c1cccn(Cc2ccc(Cl)cc2Cl)c1=O`: in assay [2], the EC50 was 7.26 µM (active).

Turning to `O=C(NCc1ccccn1)c1cc(-c2ccc(-c3ccccc3)cc2)nc2ccccc12`, the EC50 in assay [1] was 0.461 µM (active).

Consider `CN(C)C(CNC(=O)CCC(=O)c1ccc(Br)cc1)c1ccccc1` (stereo not drawn), for which the EC50 in assay [1] is > 260 µM (inactive).

Regarding `O=C1/C(=C/c2ccc3c(c2)OCO3)CCC/C1=C\c1ccc2c(c1)OCO2`, the AC50 in assay [3] was > 380 µM (inactive). Further, the EC50 at Protein RecA was > 380 µM (inactive).

Regarding `CCCc1n[nH]c2c1C(c1cc(OC)cc(OC)c1)C(C#N)=C(N)O2` (stereo not drawn), the AC50 in assay [3] is 1.27 µM (active). Also, the EC50 at Protein RecA was 1.51 µM (active).

As for `CN(C)S(=O)(=O)N1CCN(C(=O)N2CCCCC2)CC1`, the EC50 in assay [4] is listed as > 195 µM (not active).

On to `O=[N+]([O-])c1ccc(Nc2ccc(F)cc2)cc1`, for which the EC50 in assay [4] is recorded as > 195 µM (not active).

In the case of `N#CC1=C(N)N(c2ccccc2)C(c2cccc([N+](=O)[O-])c2)C1(C#N)C#N` (stereo not drawn), in assay [3], the concentration at half-maximal activity (AC50) is 5.73 µM (active). Also, at Protein RecA, the EC50 is 12.8 µM (active).

As for `CCN(C(=O)c1cc2c(O)nc3ccc(C)cc3c2s1)c1ccccc1F`, in assay [1], the EC50 is > 260 µM (inactive).

Take `O=S(=O)(NC1CCCCC1N1CCN(c2ccc(F)cc2)CC1)c1ccc(Cl)cc1` (stereo not drawn): the EC50 in assay [2] was 3.94 µM (active).

Regarding `Cc1cccc(C(=O)NNC(=O)CCn2nnc3ccccc32)c1`, the EC50 in assay [1] was > 260 µM (inactive).

In the case of `O=C(c1ccc2nc(Cc3cccc(Cl)c3)oc2c1)N1CCC(O)CC1`, the AC50 in assay [3] is 357 µM (active). On Protein RecA, the EC50 was > 380 µM (inactive).

As to `COc1ccc(C(=O)C2=C(O)C(=O)N(CCN(C)C)C2c2cccnc2)cc1C` (stereo not drawn), the EC50 in assay [2] is > 53 µM (inactive).

`CS/C(=N\C#N)N1CCN(c2ccc(Cl)cc2)CC1`: in assay [1], the EC50 was 129 µM (active).

With `C/C(CC(=O)Nc1cccc2c1CCCC2)=N\NC(=O)COc1ccccc1`, in assay [1], the EC50 is > 260 µM (inactive).

For the molecule `Cc1[nH]n(-c2ccccc2)c(=O)c1C=C1C(=O)NC(=O)NC1=O`, the AC50 in assay [3] was 16.8 µM (active). Also, at Protein RecA, the EC50 is 7.39 µM (active).

With `CCn1c(N)nc2ccccc21`, the AC50 on Cytochrome P450 2D6 is 17.8 µM (inconclusive).

With `COc1ccc(CNc2ncnc3ccc(-c4cccc(NS(C)(=O)=O)c4)cc23)c(OC)c1`, the AC50 on Cytochrome P450 2D6 was 10 µM (inconclusive).

`CCOC(=O)NNc1nncc2ccccc12` [TODRALAZINE]: the AC50 at Cytochrome P450 2D6 is 12.6 µM (inconclusive).

The values are drawn from ChEMBL document CHEMBL1201862, “PubChem BioAssay data set” (2004).
